Source: patent EP1301480B1, “1,3-DISUBSTITUTED AND 1,3,3-TRISUBSTITUTED PYRROLIDINES AS HISTAMINE-3 RECEPTOR LIGANDS AND THEIR THERAPEUTIC APPLICATIONS” (ABBOTT LABORATORIES, priority 2000, dated 2002)

Biological target: T1, histamine-3 receptor (Rattus norvegicus, UniProt Q9QYN8)
T1 construct: from tissue; host or cells: male Sprague-Dawley rat brain cortex membranes
Test: Histamine-3 receptor binding: displacement of (3H)-N-α-methylhistamine from rat cortical membranes
Parameters: species or system male Sprague-Dawley rat
Details: (3H)-N-α-methylhistamine (~0.6 nM), 30 minutes at 25 °C, pH 7.7, Cheng-Prusoff equation
Procedure: Briefly, male Sprague-Dawley rat brain cortices were homogenized (1 g tissue/10 mL buffer) in 50 mM Tris-HCl/5 mM EDTA containing protease inhibitor cocktail (Calbiochem) using a polytron set at 20,500 rpm. Homogenates were centrifuged for 20 minutes at 40,000xg. The supernatant was decanted, and pellets were weighed. The pellet was resuspended by polytron homogenization in 40 mL 50 mM Tris-HCI/5 mM EDTA with protease inhibitors and centrifuged for 20 minutes at 40,000xg. […] Test compounds were dissolved in DMSO to provide a 20 mM solution, serially diluted and then added to the incubation mixtures prior to initiating the incubation assay by addition of the membranes. Thioperamide (3 µM) was used to determine nonspecific binding. Binding incubations were conducted for 30 minutes at 25 °C and terminated by addition of 2 mL of ice cold 50 mM Tris-HCl (pH 7.7) and filtration through 0.3% polyethylenimine-soaked Unifilter plates (Packard). These filters were washed 4 additional times with 2 mL of ice-cold 50 mM Tris-HCl and dried for 1 hour. Radioactivity was determined using liquid scintillation counting techniques. Results were analyzed by Hill transformation and Ki values were determined using the Cheng-Prusoff equation.

T1 sequence (Q9QYN8 whole entry): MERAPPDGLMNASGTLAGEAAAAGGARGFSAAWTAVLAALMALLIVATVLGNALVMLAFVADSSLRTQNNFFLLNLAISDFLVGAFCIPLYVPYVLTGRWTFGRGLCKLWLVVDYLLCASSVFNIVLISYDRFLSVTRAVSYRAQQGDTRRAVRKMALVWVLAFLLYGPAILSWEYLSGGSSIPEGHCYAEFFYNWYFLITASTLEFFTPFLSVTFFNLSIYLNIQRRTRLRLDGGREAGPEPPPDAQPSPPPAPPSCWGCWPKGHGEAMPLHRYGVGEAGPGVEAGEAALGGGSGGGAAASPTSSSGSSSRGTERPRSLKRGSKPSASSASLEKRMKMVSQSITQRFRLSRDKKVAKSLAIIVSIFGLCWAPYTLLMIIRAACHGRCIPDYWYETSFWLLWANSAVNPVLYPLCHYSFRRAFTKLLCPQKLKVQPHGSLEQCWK

Ki [nM] | Compound
105 | N#Cc1ccc(-c2ccc(OCCCN3CC[C@H](O)C3)cc2)cc1 [Example 155, 4'-{3-[(3S)-3-hydroxypyrrolidinyl]propoxy}[1,1'-biphenyl]-4-carbonitrile]
593 | CC(C)C1(O)CCN(CCCOc2ccc(-c3ccc(C#N)cc3)cc2)C1 (centres unmarked) [Example 157]
45 | CC1(O)CCN(CCCOc2ccc(-c3ccc(C#N)cc3)cc2)C1 (centres unmarked) [Example 156, 4'-[3-(3-hydroxy-3-methyl-1-pyrrolidinyl)propoxy][1,1'-biphenyl]-4-carbonitrile]
626 | CC(=O)c1ccc(OCCCN2CCC(N3C(=O)NC(C(C)C)C3=O)C2)cc1 [Example 10, (5R)-3-{(3R)-1-[3-(4-acetylphenoxy)propyl]pyrrolidinyl}-5-isopropyl-2,4-imidazolidinedione]
31 | 1-(4-{3-[(3R)-3-aminopyrrolidinyl]propoxy}phenyl)-1-propanone [Example 7]
15 | C[C@@]1(O)CCN(CCCOc2ccc(-c3ccc(C#N)cc3)cc2)C1 [Example 158, 4'-{3-[(3R)-3-hydroxy-3-methylpyrrolidinyl]propoxy}[1,1'-biphenyl]-4-carbonitrile]
22 | O=C(c1ccc(OCCCN2CCC(O)C2)cc1)C1CC1 (centres unmarked) [Example 151, cyclopropyl{4-[3-(3-hydroxy-1-pyrrolidinyl)propoxy]phenyl}methanone]
2.9 | N-((3R)-1-{3-[4-(cyclopropylcarbonyl)phenoxy]propyl}pyrrolidinyl)-4-isopropylbenzenesulfonamide [Example 67]
63 | N#Cc1ccc(-c2ccc(OCCCN3CCC(=O)C3)cc2)cc1 [Example 154, 4'-[3-(3-oxo-1-pyrrolidinyl)propoxy][1,1'-biphenyl]-4-carbonitrile]
42 | N#Cc1ccc(-c2ccc(OCCCN3CC[C@@H](O)C3)cc2)cc1 [Example 153, 4'-{3-[(3R)-3-hydroxypyrrolidinyl]propoxy}[1,1'-biphenyl]-4-carbonitrile]
12 | CN(C)[C@@H]1CCN(CCCOc2ccc(-c3ccc(C#N)cc3)cc2)C1 [Example 108, 4'-{3-[(3R)-3-(dimethylamino)pyrrolidinyl]propoxy}[1,1'-biphenyl]-4-carbonitrile]
90 | CC(C)(C)OC(=O)NC1CCN(CCCOc2ccc(-c3ccc(C#N)cc3)cc2)C1 (centres unmarked) [Example 98, tert-butyl 1-{3-[(4'-cyano[1,1'-biphenyl]-4-yl)oxy]propyl}-3-pyrrolidinylcarbamate]
8.7 | O=C(c1ccc(OCCCN2CC[C@@H](O)C2)cc1)C1CC1 [Example 152, cyclopropyl(4-{3-[(3R)-3-hydroxypyrrolidinyl]propoxy}phenyl)methanone]

Compound | Ki [nM]
N-{(3R)-1-[3-(4-acetylphenoxy)propyl]pyrrolidinyl}-4-(trifluoromethoxy)benzenesulfonamide [Example 73] | 6.4
